Measured values: PubChem BioAssay AID624008 (Vanderbilt Specialized Chemistry Center, 2012)
The source made the active and inactive calls. The rule behind the calls is not given here.

The compounds below were run against Phospholipase D1 (Homo sapiens) + Phospholipase D1 (Homo sapiens) (UniProt Q13393+Q13393) (assay: cellular PLD1 inhibitors, Calu-1 cells, Lib32, assay 1A (AID 624008)). Conditions: percent of control, stronger effect = lower value, concentration not given here.
Phospholipase D1 (Homo sapiens) + Phospholipase D1 (Homo sapiens), sequence (Q13393 whole entry, looked up): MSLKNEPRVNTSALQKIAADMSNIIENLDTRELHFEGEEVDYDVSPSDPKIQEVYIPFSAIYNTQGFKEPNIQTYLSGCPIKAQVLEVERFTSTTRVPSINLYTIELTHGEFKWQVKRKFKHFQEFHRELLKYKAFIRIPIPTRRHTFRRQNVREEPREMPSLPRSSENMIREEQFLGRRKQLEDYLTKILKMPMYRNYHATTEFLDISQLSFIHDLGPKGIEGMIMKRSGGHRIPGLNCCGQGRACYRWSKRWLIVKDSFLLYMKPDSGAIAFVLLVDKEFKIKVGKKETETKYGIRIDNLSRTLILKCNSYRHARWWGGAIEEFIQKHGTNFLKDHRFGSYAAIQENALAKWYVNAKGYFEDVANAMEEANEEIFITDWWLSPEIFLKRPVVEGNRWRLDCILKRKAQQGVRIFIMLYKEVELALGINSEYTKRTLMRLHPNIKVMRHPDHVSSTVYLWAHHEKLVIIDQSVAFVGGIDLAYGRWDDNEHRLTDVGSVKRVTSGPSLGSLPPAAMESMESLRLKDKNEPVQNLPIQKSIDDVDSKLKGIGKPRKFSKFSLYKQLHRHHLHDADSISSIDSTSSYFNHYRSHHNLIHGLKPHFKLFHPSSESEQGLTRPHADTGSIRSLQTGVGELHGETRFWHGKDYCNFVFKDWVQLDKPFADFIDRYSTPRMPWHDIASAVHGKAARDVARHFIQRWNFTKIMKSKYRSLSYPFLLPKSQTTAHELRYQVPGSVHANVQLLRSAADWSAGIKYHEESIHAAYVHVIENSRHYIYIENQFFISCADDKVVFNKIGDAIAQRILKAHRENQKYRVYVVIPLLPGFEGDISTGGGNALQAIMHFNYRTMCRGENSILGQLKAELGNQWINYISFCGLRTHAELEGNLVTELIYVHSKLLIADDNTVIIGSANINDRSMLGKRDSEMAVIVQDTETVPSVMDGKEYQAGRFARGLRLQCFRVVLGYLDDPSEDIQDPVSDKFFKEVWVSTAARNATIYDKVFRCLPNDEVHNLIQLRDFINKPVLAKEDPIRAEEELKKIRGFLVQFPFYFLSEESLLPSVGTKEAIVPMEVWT
Phospholipase D1 (Homo sapiens) + Phospholipase D1 (Homo sapiens), sequence (Q13393 whole entry, looked up): as above

SMILES	remaining activity
C[C@@H](CN1CCC2(CC1)C(=O)NCN2c1cccc(F)c1)NC(=O)c1cccc(C(F)(F)F)c1	82.3% (inactive)
O=C(c1ccc(F)cc1)N(CCN1CCC2(CC1)C(=O)NCN2c1cccc(F)c1)C(=O)c1ccc(F)cc1	109% (inactive)
C[C@@H](CN1CCC2(CC1)C(=O)NCN2c1cccc(F)c1)NC(=O)c1ccc(Br)cc1	10.2%
C[C@@H](CN1CCC2(CC1)C(=O)NCN2c1cccc(F)c1)NC(=O)c1cccc2ccccc12	64.5%
C[C@@H](CN1CCC2(CC1)C(=O)NCN2c1cccc(F)c1)NC(=O)c1ccc(F)cc1	24%
O=C(NCCN1CCC2(CC1)C(=O)NCN2c1cccc(F)c1)c1c(F)ccc(F)c1Cl	106% (inactive)
O=C(NCCN1CCC2(CC1)C(=O)NCN2c1cccc(F)c1)c1ccc(F)cc1	102% (inactive)
O=C(NCCN1CCC2(CC1)C(=O)NCN2c1cccc(F)c1)c1ccccn1	93.5% (inactive)
O=C(NCCN1CCC2(CC1)C(=O)NCN2c1cccc(F)c1)c1cccc(C(F)(F)F)c1	94.8% (inactive)
C[C@@H](CN1CCC2(CC1)C(=O)NCN2c1cccc(F)c1)NC(=O)c1cccc([N+](=O)[O-])c1	28.6%
C[C@@H](CN1CCC2(CC1)C(=O)NCN2c1cccc(F)c1)NC(=O)c1cccc(F)c1	45.7%
COc1cc(C(=O)NCCN2CCC3(CC2)C(=O)NCN3c2cccc(F)c2)cc(OC)c1OC	113% (inactive)
C[C@@H](CN1CCC2(CC1)C(=O)NCN2c1cccc(F)c1)NC(=O)c1ccc(F)cc1F	28.8%
O=C(NCCN1CCC2(CC1)C(=O)NCN2c1cccc(F)c1)c1ccc(Cl)cc1Cl	107% (inactive)
O=C(Cc1ccc(F)cc1)NCCN1CCC2(CC1)C(=O)NCN2c1cccc(F)c1	99.3% (inactive)
O=C(NCCN1CCC2(CC1)C(=O)NCN2c1cccc(F)c1)c1cccc2c1OCO2	102% (inactive)
O=C(NCCN1CCC2(CC1)C(=O)NCN2c1cccc(F)c1)c1ccc(F)cc1F	99% (inactive)
C[C@@H](CN1CCC2(CC1)C(=O)NCN2c1cccc(F)c1)NC(=O)Cc1ccc(F)cc1	102% (inactive)
O=C(NCCN1CCC2(CC1)C(=O)NCN2c1cccc(F)c1)c1cccc2ccccc12	102% (inactive)
C[C@@H](CN1CCC2(CC1)C(=O)NCN2c1cccc(F)c1)NC(=O)c1ccc(F)c(F)c1	10.1%
C[C@@H](CN1CCC2(CC1)C(=O)NCN2c1cccc(F)c1)NC(=O)c1ccc(Cl)cc1Cl	71.6%
C[C@@H](CN1CCC2(CC1)C(=O)NCN2c1cccc(F)c1)NC(=O)c1c(F)ccc(F)c1Cl	81.7% (inactive)
O=C(NCCN1CCC2(CC1)C(=O)NCN2c1cccc(F)c1)c1ccccc1I	99.7% (inactive)
O=C(NCCN1CCC2(CC1)C(=O)NCN2c1cccc(F)c1)c1cccc([N+](=O)[O-])c1	101% (inactive)
O=C(NCCN1CCC2(CC1)C(=O)NCN2c1cccc(F)c1)c1ccc(Br)cc1	98.5% (inactive)
COc1cc(C(=O)N[C@@H](C)CN2CCC3(CC2)C(=O)NCN3c2cccc(F)c2)cc(OC)c1OC	9.86%
C[C@@H](CN1CCC2(CC1)C(=O)NCN2c1cccc(F)c1)NC(=O)c1c(F)cccc1F	75.1%
C[C@@H](CN1CCC2(CC1)C(=O)NCN2c1cccc(F)c1)NC(=O)c1ccccc1I	91.6% (inactive)
